Data from ChEMBL document CHEMBL5725892, “Triazolo[4,5-D]pyrimidine derivatives” (2017).

Molecular target: Cannabinoid receptor 2 (Homo sapiens, UniProt P34972)
Assay: cAMP Assay: CHO cells expressing human CB1 or CB2 receptors are seeded 17-24 hours prior to the experiment 50.000 cells per well in a black 96 well plate with flat clear bottom (Corning Costar #3904) in DMEM (Invitrogen No. 31331), 1×HT supplement, with 10% fetal calf serum and incubated at 5% CO2 and 37° C. in a humidified incubator. The growth medium was exchanged with Krebs Ringer Bicarbonate buffer with 1 mM IBMX and incubated at 30° C. for 30 min. Compounds were added to a final assay volume of 100 μl and incubated for 30 min at 30° C. Using the cAMP-Nano-TRF detection kit the assay (Roche Diagnostics) was stopped by the addition of 50 μl lysis reagent (Tris, NaCl, 1.5% Triton X100, 2.5% NP40, 10% NaN3) and 50 μl detection solutions (20 μM mAb Alexa700-cAMP 1:1, and 48 μM Ruthenium-2-AHA-cAMP) and shaken for 2 h at room temperature. The time-resolved energy transfer is measured by a TRF reader (Evotec Technologies GmbH), equipped with a ND:YAG laser as excitation source. The plate is measured twice with the excitation at 355 nm and at the emission with a delay of 100 ns and a gate of 100 ns, total exposure time 10 s at 730 (bandwidth 30 nm) or 645 nm (bandwidth 75 nm), respectively. […]

Chain of Cannabinoid receptor 2 (P34972 whole entry): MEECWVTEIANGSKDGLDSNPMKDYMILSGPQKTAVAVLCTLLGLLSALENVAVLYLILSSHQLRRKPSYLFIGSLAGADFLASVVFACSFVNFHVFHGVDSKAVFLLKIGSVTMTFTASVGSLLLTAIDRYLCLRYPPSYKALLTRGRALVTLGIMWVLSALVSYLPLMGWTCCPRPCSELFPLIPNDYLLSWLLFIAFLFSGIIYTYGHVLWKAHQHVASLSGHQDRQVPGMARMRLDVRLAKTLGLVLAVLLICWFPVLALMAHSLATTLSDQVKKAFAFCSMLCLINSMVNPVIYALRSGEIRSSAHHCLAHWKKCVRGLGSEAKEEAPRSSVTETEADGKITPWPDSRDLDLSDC

CC(=O)N[C@H]1CCN(c2nc(O[C@@H](C)C(F)(F)F)nc3c2nnn3Cc2ccccc2C(F)(F)F)C1
EC50: 78.9 nM
